From patent US20130331331A1, “HEXAPEPTIDE WITH IMPROVED ACTIVITY IN THE REPAIR OF CELLULAR DNA OF DERMAL CELLS” (priority 2011, published 2013)
Non-standard residues stand in square brackets, D forms with d. Nle = CCCC[C@H](N)C(=O)O

How the values were obtained:
human melanocytes = assay: DNA damage as measured by 8-oxo-dG immunofluorescence; type: cell-based
Source text: DNA damage of cultured melanocytes following UV irradiation leads to consistent levels of photoproducts such as 8-oxo-dG. It is well established in the art (dermal carcinogenesis) that 8-oxodG is a major form of UV-induced oxidative DNA damage, which results from the generation of reactive oxygen species (ROS). The induction of 8-oxodG by 8-oxo-dGTP can be inhibited by pyrophosphohydrolases (8-[…]) that convert it to 8-oxo-dGMP. […] Immunofluorescence was detected using a microscope with FITC filters. Data were expressed as the mean fluorescence intensity±S.E., determined using the densitometry values from 6-8 randomly obtained images, using the computer assisted program Alpha Inotech Imaging System and the AlphaEase FC StandAlone Software.

melanocytes strain 1505b = assay: cAMP levels, radioimmunoassay, strain 1505b; type: cell-based, human; details: 1 nM, 45 min, 0.1 mM IBMX
Protocol: Dose-response experiments were carried out on three melanocytic strains, namely strains 1513c, 1505b and 105c melanocytes were treated with 1 pM-10 nM CUV9900 or NDP-MSH, or with 0.1-10 nM MSH for 45 minutes in the presence of 0.1 mM isobutyl methylxanthine (IBMX). The results obtained from strain 1513c are shown in FIG. 3, the results obtained from strain 1505b are shown in FIG. 5a and the results obtained from strain 105c are shown in FIG. 5b. The strains 1505b and 1513c were obtained from the same human adult while the strain 105c was obtained from another human adult. Cyclic AMP is the second messenger for the melanocortin-1 receptor, and assessment is usually performed indicating cellular activity reflective of melanogenesis. Cyclic AMP levels were determined using ^125I-labeled radioimmunoassay kit (Perkin Elmer, Waltham, Mass.), in human melanocytes that were treated with 0 (control), 0.1-10.0 nM α-MSH, or 0.001-10 nM NDP-MSH or 0.001-10.0 nM CUV 9900 for […]. in the presence of 0.1 mM IBMX, a phosphodiesterase inhibitor to prevent cAMP degradation. Triplicate wells were included in each group, and duplicate samples from each well were assayed for cAMP levels. Each data point is the mean percent of control of 6 determinations/group±S.E.

melanocyte strain 1513c = assay: Tyrosinase activity as a measure of stability / residual effect, strain 1513c; type: cell-based, human
Protocol: To determine the residual effect of CUV9900, as compared to NDP-MSH and α-MSH, on tyrosinase activity, melanocytes were treated with either CUV9900 or NDP-MSH at the concentrations previously described for a total of 3 days. Tyrosinase activity was measured at the end of the 3 days of treatment, and 2 and 4 days after maintenance of the melanocytes in the complete absence of any treatment.
With continued reference to FIGS. 7, 8 and 9, to determine the stability of CUV9900 versus that of NDP-MSH and α-MSH, melanocytes were treated with 1 nM of each peptide, namely with CUV9900, NDP-MSH and α-MSH, for a total of 6 days, or with 1 nM peptides that were incubated for 5 hours at 37° C. prior to addition to the cultures, every other day, for a total of 6 days. Tyrosinase activity was measured at the end of treatment. In the experiments, cell number represents the mean percent of control of 3 determinations/group±SE, and tyrosinase activity data represent the mean percent of control of 6 determinations±S.E. It should be noted that for the sake of reproducibility the experiment of strain 1513c of FIG. 9 was performed once more 6 months later than the experiment of FIG. 7.
Melanocytes were treated for 3 days with the designated concentrations of CUV9900, NDP-MSH, or MSH, then maintained in absence of peptides for 4 days. Tyrosinase activity was determined 3 days after treatment.
Comparison of stability of CUV9900, NDP-MSH and MSH was compared in 1513c, as shown in FIG. 7; the strain was treated for 6 days with 1 nM CUV9900, NDP-MSH or MSH with fresh medium and peptide replenished every 2 days. Melanocytes were treated according to the same experiment protocol but each peptide was incubated for 5-7 hours at 37 degrees Celsius. […] The assessment of tyrosinase was statistically different from control, as determined by ANOVA (p=<0.05).
Tyrosinase activity as a measure of stability is shown in Tables 4 to 6 below, wherein Table 4 is based on data derived from FIG. 7, Table 5 is based on data derived from FIG. 9, and Table 6 is based on data derived from FIG. 8: […]

melanocyte strain 1505b = assay: Cell proliferation as a measure of stability, strain 1505b; type: cell-based, human
melanocytic strain 103c = assay: UV-induced generation of hydrogen peroxide (luminol), strain 103c; type: cell-based, human; details: 1 nM, 105 mJ/cm^2 UV, 0, 30 and 45 minutes after irradiation
Source text: With reference to FIGS. 10 and 11, melanocytes were irradiated with a bank of FS 20 lamps, with 75% emission in the UVB, and 25% emission in the UVA spectra, with peak emission at 313 nm wavelength. Any emission of UVC rays from the UV source (FS 20 lamps) was blocked by Kodacel filter. Prior to irradiation, the culture medium was replaced by PBS, which was removed after UV exposure, and fresh medium added.
Melanocytes were irradiated with 105 mJ/cm^2 UV, and treated immediately while in PBS with 0, 1 nM α-MSH or 1 nM CUV9900. Generation of hydrogen peroxide, representative of reactive oxygen species (ROS), was determined by measuring the luminescence of luminol at 0, 30, and 45 min after UV exposure. Triplicate dishes were included in each group, and duplicate samples from each dish were used for measurement of hydrogen peroxide at each time point. Each data point represents the mean of 6 determinations/group±S.E.
In the melanocytic strain 1505b of FIG. 10 and melanocytic strain 103c of FIG. 11, hydrogen peroxide generation was assessed at 0, 30 and 45 minutes after UV irradiation.

Ac-Nle-Glu His-D-Phe-Arg-Trp-NH2 (Ac-[Nle]EH[dF]RW-NH2; SMILES CCCC[C@H](NC(C)=O)C(=O)N[C@@H](CCC(=O)O)C(=O)N[C@@H](Cc1c[nH]cn1)C(=O)N[C@H](Cc1ccccc1)C(=O)N[C@@H](CCCNC(=N)N)C(=O)N[C@@H](Cc1c[nH]c2ccccc12)C(N)=O) [CUV9900, hexapeptide alpha-MSH analogue]
less 8-oxo-dG cellular DNA damage in comparison with alpha-MSH (human melanocytes): 33%
cAMP, potency comparison (melanocytes strain 1505b): more potent than MSH
tyrosinase activity, comparison in words (melanocyte strain 1513c; first experiment in strain 1513c (Table 4)): increased tyrosinase activity in comparison to Control and MSH, but marginally less than NDP-MSH
Tyrosinase activity, Mean (melanocyte strain 1513c; strain 1513c [1], 1 nM, mean of columns 1-3): 215.7 % of control
effect of incubating the peptide on its stimulation of tyrosinase activity (melanocyte strain 1513c; strain 1513c, 1 nM peptide incubated 5-7 hours at 37 degrees Celsius): no effect on its ability to stimulate tyrosinase activity
Tyrosinase activity, Mean [1 + 2] (melanocyte strain 1513c; strain 1513c, mean over experiments [1] and [2]): 284.2 % of control
more stable in comparison to MSH (cell proliferation) (melanocyte strain 1505b): 2.6%
more stable than NDP-MSH (cell proliferation) (melanocyte strain 1505b): 10.16%
Cell proliferation (cell number), column 2 (melanocyte strain 1505b; 1 nM): 120% of control
Cell proliferation (cell number), column 3 (melanocyte strain 1505b; 1 nM): 108% of control
UV-induced hydrogen peroxide generation (melanocytic strain 103c): significant reduction of UV-induced hydrogen peroxide generation
